Data set [1] has as its target T1, Stimulator of interferon genes protein (Homo sapiens, UniProt Q86WV6). Nature of the data set: Agonist activity at STING in human THP1-Dual cells assessed as fold change in ISG activation at 10 uM incubated for 24 hrs by Quanti-luc reagent based assay relative to control. The class given is cell-based. As to conditions: filed as agonist.
In data set [2] the target is T2, Stimulator of interferon genes protein (Mus musculus) (UniProt Q3TBT3).
T2 sequence (whole entry): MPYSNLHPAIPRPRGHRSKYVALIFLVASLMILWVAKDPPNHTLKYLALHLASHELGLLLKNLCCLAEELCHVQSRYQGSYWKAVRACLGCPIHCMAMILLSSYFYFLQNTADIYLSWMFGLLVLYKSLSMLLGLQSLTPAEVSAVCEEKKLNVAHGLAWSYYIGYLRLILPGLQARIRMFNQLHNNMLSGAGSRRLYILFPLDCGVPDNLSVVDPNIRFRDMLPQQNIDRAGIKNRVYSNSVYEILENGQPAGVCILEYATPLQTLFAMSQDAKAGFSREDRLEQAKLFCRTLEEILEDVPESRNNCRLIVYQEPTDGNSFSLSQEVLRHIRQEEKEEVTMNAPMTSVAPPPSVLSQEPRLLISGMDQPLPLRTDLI
Nature of the data set: Agonist activity at STING in mouse RAW-Lucia ISG cells assessed as fold change in ISG activation at 50 uM incubated for 24 hrs by Quanti-luc reagent based assay relative to control. The class given is cell-based. As to conditions: filed as agonist.

Data set [3] deals with T1, Stimulator of interferon genes protein. Nature of the data set: Agonist activity at STING (unknown origin).
Data set [4] shares this target. The data set is described as follows: Agonist activity at STING in human THP1-Dual cells assessed as ISG activation incubated for 24 hrs by Quanti-luc reagent based assay. Format: cell-based.
Data set [5] has as its target T3, Stimulator of interferon genes protein (Mus musculus, UniProt Q3TBT3).
T3 sequence (Q3TBT3 whole entry): T2 sequence (whole entry)
The data set is described as follows: Agonist activity at STING in mouse RAW-Lucia ISG cells assessed as ISG activation incubated for 24 hrs by Quanti-luc reagent based assay. Format: cell-based.

Data set [6] in a line: Agonist activity at human STING R232H mutant.
For data set [7], the target named is T1, Stimulator of interferon genes protein. The data set is described as follows: Activation of STING pathway in human THP1-Dual cells assessed as increase in IFNbeta expression level at 0.01 to 1 uM measured for 24 hrs by chemiluminescence based analysis. The class given is cell-based. As to conditions: filed as activator, dose 0.01-1 µM.
The target is the same in data set [8]. The data set is described as follows: Activation of STING pathway in human THP1-Dual cells assessed as increase in IFNbeta expression level at 0.1 uM measured for 24 hrs by chemiluminescence based analysis. Format: cell-based. As to conditions: filed as activator.
For data set [9] the target is unchanged. The data set is described as follows: Activation of STING pathway in human THP1-Dual cells assessed as increase in IP-10 expression level at 0.01 to 1 uM measured for 24 hrs by chemiluminescence based analysis. The class given is cell-based. As to conditions: filed as activator, dose 0.01-1 µM.
For data set [10] the target is unchanged. The data set is described as follows: Activation of STING pathway in human THP1-Dual cells assessed as increase in IP-10 expression level at 0.1 uM measured for 24 hrs by chemiluminescence based analysis. The class given is cell-based. As to conditions: filed as activator.
Data set [11] shares this target. Nature of the data set: Activation of STING pathway in human 293T-Dual hSTING-H232 cells assessed as increase in IFNbeta expression level measured for 24 hrs by SEAP reporter based Quanti-luc assay. Format: cell-based. As to conditions: filed as activator, dose 0.01-1 µM, DDE = dose-dependent effect.
The target is the same in data set [12]. Nature of the data set: Activation of STING pathway in human 293T-Dual hSTING-H232 cells assessed as increase in ISG expression level measured for 24 hrs by SEAP reporter based Quanti-luc assay. As to conditions: filed as activator, dose 0.01-1 µM, DDE = dose-dependent effect. The class given is cell-based.
For data set [13] the target is unchanged. Nature of the data set: Agonist activity at STING in human THP-1 cells. Format: cell-based.
The nature of data set [14]: Half life in BALB/c mouse at 1 mg/kg, iv measured up to 24 hrs by UPLC-MS/MS analysis. As to conditions: in vivo. The class given is ADME, organism-based.
Data set [15] is described as follows: AUClast in BALB/c mouse at 1 mg/kg, iv measured up to 24 hrs by UPLC-MS/MS analysis. Also on record: time < 24 hrs, dose 1 mg/kg, route iv. The class given is ADME, organism-based. As to conditions: in vivo.
A short description of data set [16]: Observed AUC infinity in BALB/c mouse at 1 mg/kg, iv measured up to 24 hrs by UPLC-MS/MS analysis. As to conditions: in vivo. Also on record: dose 1 mg/kg, time < 24 hrs, route iv. Format: ADME, organism-based.
Data set [17] can be described thus: Observed clearance in BALB/c mouse at 1 mg/kg, iv measured up to 24 hrs by UPLC-MS/MS analysis. Format: ADME, organism-based. As to conditions: in vivo.
A short description of data set [18]: Observed volume of distribution at steady state in BALB/c mouse at 1 mg/kg, iv measured up to 24 hrs by UPLC-MS/MS analysis. Format: ADME, organism-based. As to conditions: in vivo, read-out: Vdss.
Data set [19] deals with T1, Stimulator of interferon genes protein. Nature of the data set: Agonist activity at wild type human STING in HEK cells. The class given is cell-based.
Data set [20] shares this target. Nature of the data set: Inhibition of human wild type STING.

Active and inactive are the calls of the source. No cut-off for these calls is given here.

T1 sequence (Q86WV6 whole entry): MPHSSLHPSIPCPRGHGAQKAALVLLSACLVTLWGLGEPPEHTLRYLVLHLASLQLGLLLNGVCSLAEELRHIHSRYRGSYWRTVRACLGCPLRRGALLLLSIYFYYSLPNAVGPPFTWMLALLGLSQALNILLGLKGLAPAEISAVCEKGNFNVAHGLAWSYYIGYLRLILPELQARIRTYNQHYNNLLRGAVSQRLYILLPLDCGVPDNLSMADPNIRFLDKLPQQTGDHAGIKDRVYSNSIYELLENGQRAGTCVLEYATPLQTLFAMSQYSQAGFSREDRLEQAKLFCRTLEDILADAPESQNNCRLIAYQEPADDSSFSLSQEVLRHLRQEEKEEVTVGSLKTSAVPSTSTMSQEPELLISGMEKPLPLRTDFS

With `CCn1nc(C)cc1C(=O)Nc1nc2cc(NC(=O)CN)ccc2n1CCCCn1c(NC(=O)c2cc(C)nn2CC)nc2cc(C(N)=O)cc(OCCCN3CCOCC3)c21`, the fold change (FC) turned out to be 11 in [1] and 1.39 in data set [2].

For `Nc1ncnc2c1ncn2[C@@H]1O[C@@H]2COP(=O)(O)O[C@H]3[C@@H](O)[C@H](n4cnc5c(N)ncnc54)O[C@@H]3COP(=O)(O)O[C@H]2[C@H]1O`, in data set [3], it took 0.0513 µM to reach a half-maximal effect (EC50).

With `CCn1nc(C)cc1C(=O)Nc1nc2cc(C(N)=O)sc2n1C/C=C/Cn1c(NC(=O)c2cc(C)nn2CC)nc2cc(C(N)=O)cc(OCC3CC3)c21`, the fold change (FC) turned out to be 141 in data set [1] and 12.6 in data set [2]. For the same compound, the EC50 in data set [4] is 0.28 µM; in [5], > 100 µM.

With `O=C(c1ccc([N+](=O)[O-])cc1)N1CCc2cc(S(=O)(=O)N3C[C@@H](c4ccccc4)NC3=O)ccc21`, a half-maximal response in [3] (EC50) required 0.18 µM.

Consider `CCn1nc(C)cc1C(=O)Nc1nc2sc(C(N)=O)cc2n1CCCCn1c(NC(=O)c2cc(C)nn2CC)nc2cc(C(N)=O)cc(OCCCN3CCOCC3)c21`, for which the values for the fold change (FC) in data set [1] and in data set [2] were 1.15 and 1, respectively.

Consider `CCn1nc(C)cc1C(=O)/N=c1\[nH]c2cc(C(N)=O)cc(OC)c2n1C/C=C/Cn1/c(=N/C(=O)c2cc(C)nn2CC)[nH]c2cc(C(N)=O)cc(OCCCN3CCOCC3)c21`, for which the EC50 in data set [6] stood at 0.2 µM. Moreover, the result in data set [7], in data set [8], in [9] and in data set [10] was Active. In addition, the Activity result in data set [11] and in data set [12] was “Dde” in each case.

On to `O=C(Nc1cc(F)c(F)cc1C(=O)O)c1ccc(N2C=CNC2)nn1`, for which the 50% effective concentration (EC50) in [13] is 2.1 µM.

Turning to `CCn1nc(C)cc1C(=O)Nc1nc2cc(C(N)=O)cc(OC)c2n1C/C=C/Cn1c(NC(=O)c2cc(C)nn2CC)nc2cc(C(N)=O)cc(OCCCN3CCOCC3)c21`, the half-life in [14] was 1.14 h. In addition, the AUC(0-t) at 24 h in [15] came out at 657 ng·h/mL. The compound further returned an AUC(0-inf) in [16] of 666 ng·h/mL. In [17], the clearance was found to be 26 mL/min/kg. Further, the Vd in data set [18] was 0.965 L/kg.

Turning to `CCn1nc(C)cc1C(=O)Nc1nc2cc(C(N)=O)sc2n1CCCCn1c(NC(=O)c2cc(C)nn2CC)nc2cc(C(N)=O)sc21`, the fold change (FC) in [1] amounted to 1.15; in data set [2] it was 2.63.

Regarding `CCn1nc(C)cc1C(=O)Nc1nc2cc(C(N)=O)sc2n1CCCCn1c(NC(=O)c2cc(C)nn2CC)nc2cc(C(N)=O)cc(OCCCN3CCOCC3)c21`, the fold change (FC) in data set [1] is 8.42; in data set [2], 0.64.

For the compound `CCn1nc(C)cc1C(=O)Nc1nc2cc(NC(C)=O)ccc2n1CCCCn1c(NC(=O)c2cc(C)nn2CC)nc2cc(C(N)=O)cc(OCCCN3CCOCC3)c21`, the fold change (FC) in data set [1] was determined as 2.32; in [2] it was 1.18.

For `O=C(NCc1ccco1)c1ccc2c(c1)N(Cc1c(F)cccc1Cl)C(=O)CS2`, the EC50 in data set [19] was determined as 2.49 µM.

Turning to `CCn1nc(C)cc1C(=O)Nc1nc2cc(C(N)=O)sc2n1C/C=C/Cn1c(NC(=O)c2cc(C)nn2CC)nc2cc(C(N)=O)cc(OC3COC3)c21`, the fold change (FC) turned out to be 49.2 in [1] and 10.2 in data set [2]. Moreover, the EC50 is 1.56 µM in [4] and > 100 µM in data set [5].

Turning to `CCn1nc(C)cc1C(=O)Nc1nc2cc(C(N)=O)sc2n1C/C=C/Cn1c(NC(=O)c2cc(C)nn2CC)nc2cc(C(N)=O)cc(OC(C)C)c21`, the values for the fold change (FC) in [1] and in data set [2] were 60.4 and 13.5, respectively. For the same compound, the concentration for a half-maximal effect (EC50) in data set [4] amounted to 5.82 µM; in data set [5], 63.7 µM.

`CCn1nc(C)cc1C(=O)/N=c1\[nH]c2cc(C(N)=O)ccc2n1C[C@@H](O)c1ccccc1` showed an IC50 in data set [20] of 1.4 µM.

As to `CCn1nc(C)cc1C(=O)Nc1nc2cc(C(N)=O)sc2n1C/C=C/Cn1c(NC(=O)c2cc(C)nn2CC)nc2cc(C(N)=O)cc(O[C@H]3CCOC3)c21`, the fold change (FC) is 80.3 in [1] and 1.5 in data set [2]. In addition, the EC50 is 1.86 µM in [4] and > 100 µM in data set [5].

The values are drawn from ChEMBL document CHEMBL5113434, “Discovery of novel Thieno[2,3-d]imidazole derivatives as agonists of human STING for antitumor immunotherapy using systemic administration” (Eur J Med Chem, 2022).
